The test system of series [1] is RAW264.7. Put plainly: Cytotoxicity in mouse RAW264.7 cells assessed as cell viability after 24 hrs by MTS assay. The format is cell-based. The settings on record: raw264.7, 24 h.
Series [2] has as its system RAW264.7. Put plainly: Inhibition of LPS-stimulated ROS production in mouse RAW264.7 cells preincubated for 1 hr followed by LPS stimulation for 24 hrs measured after 30 mins by CMH2DCFDA probe-based fluorescence assay. The format is functional, cell-based.
The nature of series [3]: Cytotoxicity in mouse RAW264.7 cells assessed as cell viability at 1 uM after 24 hrs by MTS assay. The format is cell-based. The following applies: read-out: Activity. Background: Tetrazolium assays rely on reduction of a dye to a coloured formazan, in cell work by metabolically active cells.
The subject of series [4] is RAW264.7. As to the kind of experiment: Inhibition of LPS-stimulated ROS production in mouse RAW264.7 cells after 22 hrs by C-400 fluorescent dye-based assay. In kind it is functional, cell-based. The settings on record: RAW264.7, 22 h.

Results on 36 molecules are retold here after ChEMBL document CHEMBL3994635, “Inhibition of LPS-stimulated ROS production by fluorinated and hydroxylated chalcones in RAW 264.7 macrophages with structure-activity relationship study” (Bioorg Med Chem Lett, 2017).

A value given as a limit tells only on which side of the number the result lay.

For orientation: IC50 means the concentration needed to halve the response being measured.

In the case of `O=C(/C=C/c1ccccc1C(F)(F)F)c1ccccc1`, the Activity entry in the series on RAW264.7 [1] is “Non-Toxic”. The same molecule gave an IC50 with RAW264.7 [2] above 10 µM.

Turning to `O=C(/C=C/c1cccc(C(F)(F)F)c1)c1ccccc1`, the Activity entry in the series on RAW264.7 [1] is on record as “Non-Toxic”. Also, the IC50 in the series with RAW264.7 [2] is above 10 µM. The corresponding values for `O=C(/C=C/c1ccc(C(F)(F)F)cc1)c1ccccc1` are “Non-Toxic” and above 10 µM. As for `O=C(/C=C/c1ccc(F)cc1)c1ccccc1O`, the Activity result in the series with RAW264.7 [1] was “Non-Toxic”. In the series with RAW264.7 [2], this molecule registered a half-inhibitory concentration (IC50) above 10 µM. As for `O=C(/C=C/c1ccccc1C(F)(F)F)c1ccccc1O`, the viability at 24 h, 1 µM in series [3] was below 90%. Turning to `O=C(/C=C/c1ccccc1F)c1ccccc1O`, in the series with RAW264.7 [1], the Activity entry is listed as “Non-Toxic”. This molecule displayed an IC50 with RAW264.7 [2] above 10 µM. For `O=C(/C=C/c1cccc(F)c1)c1ccccc1O` the same measures were “Non-Toxic” and above 10 µM. For `O=C(/C=C/c1ccc(C(F)(F)F)cc1)c1ccccc1O` the same measures were “Non-Toxic” and above 10 µM. The corresponding values for `O=C(/C=C/c1ccccc1C(F)(F)F)c1ccc(O)cc1` are “Non-Toxic” and above 10 µM. Regarding `O=C(/C=C/c1cccc(F)c1)c1cccc(O)c1`, in the series on RAW264.7 [1], the Activity entry is listed as “Non-Toxic”. The molecule further came in with an IC50 in the series with RAW264.7 [2] above 10 µM.

Take `O=C(/C=C/c1ccccc1OC(F)(F)F)c1cccc(O)c1`: in the series with RAW264.7 [1], the Activity entry is reported as “Non-Toxic”. The same molecule returned an IC50 in the series with RAW264.7 [2] of 1.61 µM. For `O=C(/C=C/c1ccc(OC(F)(F)F)cc1)c1cccc(O)c1` the same measures were “Non-Toxic” and above 10 µM. The corresponding values for `O=C(/C=C/c1cccc(F)c1)c1ccc(O)cc1` are “Non-Toxic” and 9.15 µM. For the molecule `O=C(/C=C/c1cccc(OC(F)(F)F)c1)c1ccccc1O`, the viability at 24 h, 1 µM in series [3] was below 90%. With `O=C(/C=C/c1cccc(C(F)(F)F)c1)c1ccccc1O`, the viability at 24 h, 1 µM in series [3] was below 90%. On to `O=C(/C=C/c1ccccc1OC(F)(F)F)c1ccccc1`, for which, in the series on RAW264.7 [1], the Activity entry is “Non-Toxic”. The molecule also gave an IC50 in the series on RAW264.7 [2] above 10 µM. For `O=C(/C=C/c1ccccc1F)c1cccc(O)c1` the same measures were “Non-Toxic” and above 10 µM. For `O=C(/C=C/c1ccc(C(F)(F)F)cc1)c1cccc(O)c1` the same measures were “Non-Toxic” and above 10 µM. Consider `O=C(/C=C/c1ccccc1OC(F)(F)F)c1ccc(O)cc1`, for which the Activity entry with RAW264.7 [1] is listed as “Non-Toxic”. Also, the IC50 in the series on RAW264.7 [2] was found to be 1.34 µM. The corresponding values for `O=C(/C=C/c1cccc(C(F)(F)F)c1)c1ccc(O)cc1` are “Non-Toxic” and 1.44 µM. For `O=C(/C=C/c1ccccc1F)c1ccccc1` the same measures were “Non-Toxic” and above 10 µM.

In the case of `O=C(/C=C/c1ccccc1F)c1ccc(O)cc1`, the Activity entry with RAW264.7 [1] is recorded as “Non-Toxic”. The molecule further had a half-maximal inhibitory concentration (IC50) with RAW264.7 [2] above 10 µM.

As to `O=C(/C=C/c1ccc(OC(F)(F)F)cc1)c1ccc(O)cc1`, the Activity result in the series with RAW264.7 [1] is reported as “Non-Toxic”. The molecule further yielded an IC50 in the series with RAW264.7 [2] above 10 µM. With `O=C(/C=C/c1ccccc1OC(F)(F)F)c1ccccc1O`, in series [3], the viability at 24 h, 1 µM was below 90%. As to `O=C(/C=C/c1ccc(OC(F)(F)F)cc1)c1ccccc1`, the Activity result with RAW264.7 [1] is on record as “Non-Toxic”. The molecule further displayed an IC50 in the series on RAW264.7 [2] above 10 µM. For the molecule `O=C(/C=C/c1cccc(C(F)(F)F)c1)c1cccc(O)c1`, the viability at 24 h, 1 µM in series [3] is below 90%. In the case of `O=C(/C=C/c1ccc(F)cc1)c1cccc(O)c1`, in the series with RAW264.7 [1], the Activity entry is on record as “Non-Toxic”. The IC50 in the series with RAW264.7 [2] is above 10 µM. For `O=C(/C=C/c1cccc(OC(F)(F)F)c1)c1cccc(O)c1`, the Activity entry with RAW264.7 [1] is listed as “Non-Toxic”. In the series on RAW264.7 [2], the IC50 was above 10 µM.

Consider `O=C(/C=C/c1cccc(F)c1)c1ccccc1`, for which the Activity entry with RAW264.7 [1] is “Non-Toxic”. Also, the IC50 with RAW264.7 [2] is above 10 µM.

For the molecule `O=C(/C=C/c1cccc(OC(F)(F)F)c1)c1ccccc1`, the Activity result with RAW264.7 [1] is recorded as “Non-Toxic”. For the same molecule, the IC50 in the series with RAW264.7 [2] is above 10 µM.

As to `O=C(/C=C/c1cccc(OC(F)(F)F)c1)c1ccc(O)cc1`, the Activity entry in the series on RAW264.7 [1] is listed as “Non-Toxic”. For the same molecule, the IC50 with RAW264.7 [2] is above 10 µM. For `O=C(/C=C/c1ccccc1C(F)(F)F)c1cccc(O)c1` the same measures were “Non-Toxic” and above 10 µM.

Take `O=C(/C=C/c1ccc(OC(F)(F)F)cc1)c1ccccc1O`: the Activity entry in the series on RAW264.7 [1] is “Non-Toxic”. In the series on RAW264.7 [2], this molecule gave an IC50 above 10 µM. The corresponding values for `O=C(/C=C/c1ccc(C(F)(F)F)cc1)c1ccc(O)cc1` are “Non-Toxic” and above 10 µM. For `O=C(/C=C/c1ccc(F)cc1)c1ccc(O)cc1` the same measures were “Non-Toxic” and above 10 µM.

As for `COc1cc(-c2[o+]c3cc(O)cc(O)c3cc2O)cc(OC)c1O` [MALVIDIN CHLORIDE], in the series on RAW264.7 [4], the IC50 turned out to be 9 µM.
